From ChEMBL document CHEMBL1201862, “PubChem BioAssay data set” (2004)
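Briefly, cells in 96-well plates were exposed to five compound concentrations for 48 h, and endpoints were estimated by linear interpolation. At the GI50, growth is halved.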 Calls of active or inactive are those of the source. Rule as the data show it: active = GI50 up to about 1.1 µM and inactive = higher.

Legend:
Experiment in all cases: inhibition of tumour cell growth, NCI panel, 48 h
NCI-H522 = test system: NCI-H522
DLD-1 = test system: DLD-1
CCRF-CEM = test system: CCRF-CEM
HL-60 = test system: HL-60
A549 = test system: A549
OVCAR-4 = test system: OVCAR-4
DMS-273 = test system: DMS-273
SN12C = test system: SN12C
Malme-3M = test system: Malme-3M
HT-29 = test system: HT-29
SR = test system: SR
SNB-19 = test system: SNB-19
EKVX = test system: EKVX
A498 = test system: A498
MDA-N = test system: MDA-N
DU-145 = test system: DU-145
T47D = test system: T47D
MCF7 = test system: MCF7
NCI/ADR-RES = test system: NCI/ADR-RES
MDA-MB-435 = test system: MDA-MB-435

Measured: GI50

CC(C)(C)c1nc2c(o1)/C(=N\c1ccccc1)c1ccccc1C2=O
inactive: NCI-H522 2.91 µM | DLD-1 4.14 µM | CCRF-CEM 5.61 µM | HL-60 2.87 µM | A549 7.6 µM | OVCAR-4 2.74 µM | DMS-273 3.71 µM | SN12C 3.64 µM | Malme-3M 1.4 µM | HT-29 22.7 µM | SR 3.94 µM | SNB-19 8.17 µM | EKVX 13 µM | A498 17.5 µM

CCc1cc(Cc2cc(CC)c(NC(=O)C(=O)Cc3ccccn3)c(CC)c2Cl)c(Cl)c(CC)c1NC(=O)C(=O)Cc1ccccn1
inactive: DLD-1 > 100 µM | CCRF-CEM > 100 µM | HL-60 > 100 µM | A549 > 100 µM | OVCAR-4 > 100 µM | DMS-273 > 100 µM | SN12C > 100 µM | Malme-3M > 100 µM | HT-29 70 µM | SR > 100 µM | SNB-19 > 100 µM | EKVX > 100 µM | A498 > 100 µM

COc1c(OC(C)=O)cc2c(OC(C)=O)c1CC(C)CC(OC)C(O)C(C)/C=C(\C)C(OC(N)=O)C(OC)/C=C\C=C(/C)C(=O)N2 (configuration not stated)
inactive: NCI-H522 10.7 µM | DLD-1 > 49.8 µM | CCRF-CEM > 53.5 µM | HL-60 > 41.5 µM | A549 > 71.3 µM | OVCAR-4 > 100 µM | DMS-273 > 70.1 µM | SN12C 69.5 µM | Malme-3M 98.9 µM | HT-29 > 81.8 µM | SR > 44.2 µM | SNB-19 > 100 µM | EKVX > 100 µM | A498 > 100 µM

CCOCc1cc(=O)c2cc3c(cc2o1)OC(C)(C)CC3
inactive: NCI-H522 > 100 µM | DLD-1 > 100 µM | CCRF-CEM > 100 µM | HL-60 61.2 µM | A549 > 100 µM | OVCAR-4 > 100 µM | DMS-273 48.5 µM | SN12C > 100 µM | Malme-3M > 100 µM | HT-29 > 100 µM | SR 72.3 µM | SNB-19 > 100 µM | EKVX > 100 µM | A498 > 100 µM

CC1=C(C(=O)Nc2ccc(C)cc2)C(c2cccc([N+](=O)[O-])c2)C(C(=O)Nc2ccc(C)cc2)=C(C)N1
inactive: NCI-H522 27.4 µM | DLD-1 31.6 µM | CCRF-CEM 7.89 µM | HL-60 16.1 µM | A549 26.2 µM | OVCAR-4 12.2 µM | DMS-273 28.6 µM | SN12C 20.9 µM | Malme-3M 28.2 µM | HT-29 17.2 µM | SR 21.2 µM | SNB-19 28.1 µM | EKVX 17.1 µM | A498 16.4 µM

NNC(=O)N/N=C1\CN(c2ccc(Cl)cc2Cl)C(=O)C(=O)C1c1nc2ccccc2o1 (configuration not stated)
inactive: NCI-H522 > 100 µM | DLD-1 > 100 µM | CCRF-CEM > 100 µM | A549 > 100 µM | OVCAR-4 > 100 µM | DMS-273 > 100 µM | SN12C > 100 µM | Malme-3M > 100 µM | HT-29 > 100 µM | SR > 100 µM | SNB-19 > 100 µM | EKVX > 100 µM | A498 > 100 µM

Cc1cc(C)c(C(=O)O)c(N)c1O
inactive: NCI-H522 > 100 µM | DLD-1 > 100 µM | CCRF-CEM > 100 µM | HL-60 > 100 µM | A549 > 100 µM | OVCAR-4 > 100 µM | DMS-273 > 100 µM | SN12C > 100 µM | Malme-3M > 100 µM | HT-29 > 100 µM | SR > 100 µM | SNB-19 > 100 µM | EKVX > 100 µM | A498 > 100 µM

Oc1cc(-c2cccs2)nc2cc3c(cc12)OCO3
inactive: NCI-H522 2.05 µM | DLD-1 5.13 µM | CCRF-CEM 3.66 µM | HL-60 4.37 µM | A549 4.9 µM | DMS-273 3.34 µM | SN12C 6.76 µM | Malme-3M 3.08 µM | HT-29 13.6 µM | SR 4.73 µM | SNB-19 10.4 µM | EKVX > 62.7 µM | A498 3.17 µM

CS(=O)(=O)OCCn1cnc2nc(NC(=O)c3ccccc3)[nH]c(=O)c21
inactive: NCI-H522 > 100 µM | DLD-1 > 100 µM | CCRF-CEM > 100 µM | HL-60 > 100 µM | A549 > 100 µM | OVCAR-4 > 100 µM | DMS-273 > 100 µM | SN12C > 100 µM | Malme-3M > 100 µM | HT-29 > 100 µM | SR > 100 µM | SNB-19 > 100 µM | EKVX > 100 µM | A498 > 100 µM

O=C(CCl)Nc1ccc(C(=O)N/N=C/c2ccc(Cl)cc2)cc1
inactive: MDA-N 1.83 µM | NCI-H522 1.75 µM | DU-145 3.02 µM | DLD-1 2.18 µM | CCRF-CEM 1.82 µM | HL-60 1.6 µM | A549 6.07 µM | T47D 2.51 µM | OVCAR-4 2.09 µM | DMS-273 2 µM | MCF7 5.09 µM | SN12C 2.84 µM | NCI/ADR-RES 2.37 µM | Malme-3M 2.01 µM | HT-29 1.67 µM | SR 1.79 µM | MDA-MB-435 1.82 µM | SNB-19 7.41 µM | EKVX 2.19 µM | A498 2.21 µM

O=[N+]([O-])c1ccc(Cl)c(C2CC(c3cccc4ccccc34)=Nc3ccccc3[S+]2[O-])c1 (configuration not stated)
inactive: NCI-H522 7.23 µM | DLD-1 9.55 µM | CCRF-CEM 2.4 µM | HL-60 4.89 µM | A549 20 µM | OVCAR-4 22 µM | DMS-273 19.2 µM | SN12C 21 µM | Malme-3M 18.9 µM | HT-29 10.9 µM | SR 10.5 µM | SNB-19 29 µM | EKVX > 57.5 µM | A498 24.2 µM
